How the values were obtained:
22Rv1-Enz^R = 22Rv1-Enz^R cell proliferation assay, GIC50 (Experimental Example 4); format: cell-based; conditions: Homo sapiens; 6-day culture, cell media changed every 24 hours
Description: Selected compounds were tested in the human prostate cancer cell line, 22Rv1-Enz^R as described in Geun Taek Lee et al., Molecular Cancer Therapeutics, 20:490-9 (2021). These procedures are similar to that described in Experimental Example 1, above, except that the assay conditions are a 6-day culture with cell media changed every 24 hours.
In the Table: (+)—GIC50<20 μM; (++)—GIC50<10 μM; (+++)—GIC50<1 μM.

VCaP = VCaP cell proliferation; format: cell-based, human; conditions: androgen-responsive cell line; 1 μM
22Rv1 = assay: LDH assay for non-specific cytotoxicity in 22Rv1; format: cell-based, human; conditions: 22Rv1, up to 20 μM, six days (0.01, 0.1, 1, 10 and 20 μM tested)
Description: Apoptosis Assay. An apoptosis assay is carried out using the Thermo Fisher ApoDETECT Annexin V-FITC kit following the protocol recommended by the vendor. Briefly, after treatment with 1 μM of Test Compound for 3 to 24 hours, cells are fixed with 80% ethanol and washed with PBS three times. Then, fixed cells are incubated with Annexin V-FITC in PBS solution for 30 minutes at room temperature. After washing three times with PBS, cells are treated with 300 nM DAPI in PBS for 5 minutes at room temperature. Finally, after washing three times with PBS, mounting solution is added and the cells are visualized using immunofluorescence microscopy. Next, a TUNEL assay is performed using Promega DeadEnd Fluorometric TUNEL system. After treatment with Test Compound and fixation as described above in the Annexin-V experiment, 100 μl of equilibration buffer is incubated for 10 min. Then, 50 μl of TdT reaction mix is added and incubated for 60 min at 37° C. in a humidified chamber. Finally, stop solution is added and samples are mounted on slides using mounting medium. To assess non-specific cytotoxicity, an LDH assay kit is used.

AR-FL and AR-V7 mRNA = assay: mRNA levels of AR-FL and AR-V7 (quantitative PCR); format: cell-based, human
AR-V7 [1] = molecular target: T1, AR-V7 (Homo sapiens, UniProt P10275); assay: Immunoblot of AR-V7 polyubiquitination in 22Rv1 pretreated with MG132; format: cell-based; design: endogenous in cells; host or cells: 22Rv1; conditions: 22Rv1 pretreated with MG132 two hours; compound 1 μM
T1 sequence (P10275 1-644 isoform P10275-3): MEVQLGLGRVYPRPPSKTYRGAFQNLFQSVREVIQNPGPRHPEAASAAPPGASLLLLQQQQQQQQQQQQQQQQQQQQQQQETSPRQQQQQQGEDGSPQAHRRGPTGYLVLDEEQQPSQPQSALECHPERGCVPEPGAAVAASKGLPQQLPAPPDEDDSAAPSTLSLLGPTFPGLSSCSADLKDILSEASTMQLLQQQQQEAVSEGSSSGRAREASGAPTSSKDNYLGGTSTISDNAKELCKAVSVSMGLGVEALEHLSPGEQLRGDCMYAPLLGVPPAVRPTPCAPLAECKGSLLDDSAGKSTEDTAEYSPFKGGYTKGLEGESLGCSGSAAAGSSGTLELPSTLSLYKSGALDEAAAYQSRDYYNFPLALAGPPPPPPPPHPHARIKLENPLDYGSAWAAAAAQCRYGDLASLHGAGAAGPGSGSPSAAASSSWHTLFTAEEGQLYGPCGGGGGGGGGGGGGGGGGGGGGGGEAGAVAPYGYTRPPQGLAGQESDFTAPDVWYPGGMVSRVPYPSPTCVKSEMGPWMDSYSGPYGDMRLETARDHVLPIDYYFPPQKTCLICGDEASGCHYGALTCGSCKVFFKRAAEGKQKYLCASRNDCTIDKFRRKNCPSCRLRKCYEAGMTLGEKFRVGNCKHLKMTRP
Description: (§1) Immunoblot Analysis. CaP cells are collected and lysed with the lysis buffer (20 mM Tris-HCl (pH 7.5), 150 mM NaCl, 1 mM Na2EDTA, 1 mM EGTA, 1% Triton, 2.5 mM sodium pyrophosphate, 1 mM beta-glycerophosphate, 1 mM Na3VO4, and 1 μg/ml leupeptin) containing 1 mM phenylmethylsulfonyl fluoride (PMSF). Cell lysates are then centrifuged and protein in the supernatant is quantified. After separating 25-50 μg of protein using SDS-PAGE, samples are incubated with AR-V7, GR, PR, ERα, AR-FL, ubiquitin, or β-actin antibodies. For AR-V7, AR-FL, PR, GR, and ERα immunoblots, primary antibody is diluted 1:1000 in 5% skim milk. For the β-actin immunoblot, 1:10000 diluted primary antibody is used. All membranes are incubated overnight at 4° C. Following the incubation with appropriate secondary antibody, immunoblots are analyzed using SuperSignal West Femto Maximum Sensitivity Substrate (ThermoFisher).
To determine the ubiquitination status of AR proteins, 22Rv1 is pretreated with MG132 for two hours prior to adding Compound of Example 16 (at 1 μM).

AR-V7 [2] = molecular target: T1, AR-V7; assay: Immunoblot of AR-V7 in harvested xenograft tumors; format: in vivo; design: endogenous in cells; host or cells: 22Rv1 (also VCaP, LNCaP and SAT-resistant sublines)
Description: as §1, with “All membranes are incubated overnight at 4° C.” left out
Mice are then treated daily with Test Compound with or without enzalutamide via the indicated route (intratumoral, intraperitoneal, or oral) for five to six weeks. At the end of the study, all animals are sacrificed and tumors are harvested and analyzed. Statistical significance is calculated using the Student's t-test for paired comparisons of experimental groups and, where appropriate, by Wilcoxon rank sum test, and by 2-way ANOVA. […]
The in vivo effects of the Compound of Example 16 are assessed in mice using enzalutamide-resistant CaP xenografts. […]

Cc1ncsc1-c1ccc([C@H](C)NC(=O)[C@@H]2C[C@@H](O)CN2C(=O)[C@@H](NC(=O)CCCCNC(=O)COc2c(-c3csc(N4CCOCC4)n3)ccc(F)c2F)C(C)(C)C)cc1 [Example 16, (2S,4R)-1-((S)-2-(5-(2-(2,3-difluoro-6-(2-morpholinothiazol-4-yl)phenoxy)acetamido)pentanamido)-3,3-dimethylbutanoyl)-4-hydroxy-N-((S)-1-(4-(4-methylthiazol-5-yl)phenyl)ethyl)pyrrolidine-2-carboxamide]
IC50 (22Rv1-Enz^R): < 1000 nM
effect on proliferation of VCaP (VCaP): inhibits the proliferation
non-specific cytotoxic effect, lactate dehydrogenase (LDH) assay (22Rv1): no non-specific cytotoxic effect
effect on mRNA levels of AR-FL and AR-V7 (AR-FL and AR-V7 mRNA): no major effect
start of polyubiquitination of AR-V7 after treatment (AR-V7 [1]): 6 h
AR-V7 protein expression in Enz^R CaP tumors (AR-V7 [2]; IP administration): decreased
AR-V7 protein level in treated tumors (AR-V7 [2]; intratumoral, 22Rv1-Enz^R xenograft, end of study): significant decrease

From US20230132823A1, “BI-FUNCTIONAL COMPOUNDS AND METHODS FOR TARGETED UBIQUITINATION OF ANDROGEN RECEPTOR” (MONTELINO THERAPEUTICS, INC., priority 2020, published 2023)
